Measured values reported in publication PMC2656767 (The Journal of organic chemistry, 2009).

Tests used:
[1] = system: wild type (ATCC 90027) C. albicans; test: Modified disk diffusion assay, wild type C. albicans; assay type: cell-based, Candida albicans; conditions: wild type strain, loads of 1-5 μg/disk
[2] = system: amphotericin B resistant C. albicans (ATCC 200955); test: Modified disk diffusion assay, amphotericin B resistant C. albicans; assay type: cell-based; conditions: amphotericin B-resistant strain, loads of 1-5 μg/disk

Substance: Theopapuamide A [compound 7]
- antifungal activity (in words) [1]: activity
- antifungal activity (in words) [2]: activity
